Source: ChEMBL document CHEMBL4665836, “Overcoming β-Lactam resistance in Pseudomonas aeruginosa using non-canonical tobramycin-based antibiotic adjuvants” (2020)

Assays:
Assay type in all cases: functional
[1] = system: Pseudomonas aeruginosa; test: Potentiation of ceftazidime-induced antibacterial activity against carbapenem-resistant Pseudomonas aeruginosa 260-97103 clinical isolate assessed as ceftazidime MIC at 8 uM by checkerboard assay (reference value: 32 ug/ml)
[2] = system: Pseudomonas aeruginosa; test: Potentiation of aztreonam-induced antibacterial activity against carbapenem-resistant Pseudomonas aeruginosa PAO750 harboring mexAB-oprM/mexCD-oprJ/mexEF-oprN/mexJK/mexXY/opmH efflux deficient mutant assessed as aztreonam MIC at 8 uM by checkerboard assay (reference value: 0.5 ug/ml)
[3] = system: Pseudomonas aeruginosa; test: Potentiation of piperacillin-induced antibacterial activity against wild type Pseudomonas aeruginosa PAO1 assessed as fold reduction in piperacillin MIC at 8 uM
[4] = system: Pseudomonas aeruginosa; test: Potentiation of aztreonam-induced antibacterial activity against carbapenem-resistant Pseudomonas aeruginosa 109084 clinical isolate assessed as fold reduction in aztreonam MIC at 8 uM in presence of beta-lactamase inhibitor, avi-bactam
[5] = system: Pseudomonas aeruginosa; test: Antibacterial activity against wild type Pseudomonas aeruginosa PAO1
[6] = system: Pseudomonas aeruginosa; test: Potentiation of imipenem-induced antibacterial activity against carbapenem-resistant Pseudomonas aeruginosa 108590 clinical isolate assessed as imipenem MIC at 8 uM by checkerboard assay (reference value: 16 ug/ml)
[7] = system: Pseudomonas aeruginosa; test: Antibacterial activity against Pseudomonas aeruginosa PAO200 harboring mexAB-oprM efflux deficient mutant
[8] = system: Pseudomonas aeruginosa; test: Potentiation of ceftazidime-induced antibacterial activity against carbapenem-resistant Pseudomonas aeruginosa 109084 clinical isolate assessed as fold reduction in ceftazidime MIC at 8 uM in presence of beta-lactamase inhibitor, avi-bactam
[9] = system: Pseudomonas aeruginosa; test: Potentiation of aztreonam-induced antibacterial activity against carbapenem-resistant Pseudomonas aeruginosa 86052 clinical isolate assessed as aztreonam MIC at 8 uM by checkerboard assay (reference value: 64 ug/ml)
[10] = system: Pseudomonas aeruginosa; test: Potentiation of aztreonam-induced antibacterial activity against carbapenem-resistant Pseudomonas aeruginosa 108590 clinical isolate assessed as fold reduction in aztreonam MIC at 8 uM in presence of beta-lactamase inhibitor, avi-bactam
[11] = system: Pseudomonas aeruginosa; test: Potentiation of ceftazidime-induced antibacterial activity against carbapenem-resistant Pseudomonas aeruginosa 259-96918 clinical isolate expressing metallo-beta-lactamase assessed as ceftazidime MIC at 8 uM by checkerboard assay (reference value: 512 ug/ml)
[12] = system: Pseudomonas aeruginosa; test: Potentiation of aztreonam-induced antibacterial activity against carbapenem-resistant Pseudomonas aeruginosa 88949 clinical isolate assessed as fold reduction in aztreonam MIC at 8 uM in presence of beta-lactamase inhibitor, avi-bactam
[13] = system: Pseudomonas aeruginosa; test: Potentiation of aztreonam-induced antibacterial activity against wild type Pseudomonas aeruginosa PAO1 assessed as aztreonam MIC at 8 uM by checkerboard assay (reference value: 4 ug/ml)
[14] = system: Pseudomonas aeruginosa; test: Potentiation of aztreonam-induced antibacterial activity against carbapenem-resistant Pseudomonas aeruginosa 260-97103 clinical isolate assessed as aztreonam MIC at 8 uM by checkerboard assay (reference value: 64 ug/ml)
[15] = system: Pseudomonas aeruginosa; test: Potentiation of aztreonam-induced antibacterial activity against carbapenem and colistin-resistant Pseudomonas aeruginosa 101243 clinical isolate assessed as aztreonam MIC at 8 uM by checkerboard assay (reference value: 32 ug/ml)
[16] = system: Pseudomonas aeruginosa; test: Potentiation of aztreonam-induced antibacterial activity against carbapenem-resistant Pseudomonas aeruginosa 88949 clinical isolate assessed as aztreonam MIC at 8 uM by checkerboard assay (reference value: 32 ug/ml)
[17] = system: Pseudomonas aeruginosa; test: Potentiation of ceftazidime-induced antibacterial activity against carbapenem-resistant Pseudomonas aeruginosa 86052 clinical isolate assessed as fold reduction in ceftazidime MIC at 8 uM in presence of beta-lactamase inhibitor, avi-bactam
[18] = system: Pseudomonas aeruginosa; test: Potentiation of ceftazidime-induced antibacterial activity against wild type Pseudomonas aeruginosa PAO1 assessed as ceftazidime MIC at 8 uM by checkerboard assay (reference value: 2 ug/ml)
[19] = system: Pseudomonas aeruginosa; test: Potentiation of piperacillin-induced antibacterial activity against wild type Pseudomonas aeruginosa PAO1 assessed as piperacillin MIC at 8 uM by checkerboard assay (reference value: 8 ug/ml)
[20] = system: Pseudomonas aeruginosa; test: Potentiation of imipenem-induced antibacterial activity against carbapenem-resistant Pseudomonas aeruginosa 86052 clinical isolate assessed as imipenem MIC at 8 uM by checkerboard assay (reference value: 32 ug/ml)
[21] = system: Pseudomonas aeruginosa; test: Potentiation of imipenem-induced antibacterial activity against carbapenem-resistant Pseudomonas aeruginosa 109084 clinical isolate assessed as fold reduction in imipenem MIC at 8 uM in presence of beta-lactamase inhibitor, rele-bactam
[22] = system: Pseudomonas aeruginosa; test: Potentiation of imipenem-induced antibacterial activity against wild type Pseudomonas aeruginosa PAO1 assessed as fold reduction in imipenem MIC at 8 uM
[23] = system: Pseudomonas aeruginosa; test: Potentiation of aztreonam-induced antibacterial activity against carbapenem and colistin-resistant Pseudomonas aeruginosa 114228 clinical isolate assessed as aztreonam MIC at 8 uM by checkerboard assay (reference value: 32 ug/ml)
[24] = system: Pseudomonas aeruginosa; test: Potentiation of aztreonam-induced antibacterial activity against carbapenem-resistant Pseudomonas aeruginosa 107092 clinical isolate assessed as aztreonam MIC at 8 uM by checkerboard assay (reference value: 64 ug/ml)
[25] = system: Pseudomonas aeruginosa; test: Potentiation of ceftazidime-induced antibacterial activity against carbapenem-resistant Pseudomonas aeruginosa 107092 clinical isolate assessed as fold reduction in ceftazidime MIC at 8 uM in presence of beta-lactamase inhibitor, avi-bactam
[26] = system: Pseudomonas aeruginosa; test: Potentiation of imipenem-induced antibacterial activity against carbapenem-resistant Pseudomonas aeruginosa PAO750 harboring mexAB-oprM/mexCD-oprJ/mexEF-oprN/mexJK/mexXY/opmH efflux deficient mutant assessed as imipenem MIC at 8 uM by checkerboard assay (reference value: 4 ug/ml)
[27] = system: Pseudomonas aeruginosa; test: Potentiation of aztreonam-induced antibacterial activity against carbapenem-resistant Pseudomonas aeruginosa 108590 clinical isolate assessed as aztreonam MIC at 8 uM by checkerboard assay (reference value: 32 ug/ml)
[28] = system: Pseudomonas aeruginosa; test: Potentiation of imipenem-induced antibacterial activity against carbapenem-resistant Pseudomonas aeruginosa 86052 clinical isolate assessed as fold reduction in imipenem MIC at 8 uM in presence of beta-lactamase inhibitor, rele-bactam
[29] = system: Pseudomonas aeruginosa; test: Potentiation of ceftazidime-induced antibacterial activity against carbapenem-resistant Pseudomonas aeruginosa 101885 clinical isolate assessed as ceftazidime MIC at 8 uM by checkerboard assay (reference value: 8 ug/ml)
[30] = system: Pseudomonas aeruginosa; test: Potentiation of imipenem-induced antibacterial activity against carbapenem-resistant Pseudomonas aeruginosa 88949 clinical isolate assessed as imipenem MIC at 8 uM by checkerboard assay (reference value: 64 ug/ml)
[31] = system: Pseudomonas aeruginosa; test: Potentiation of ceftazidime-induced antibacterial activity against carbapenem-resistant Pseudomonas aeruginosa 88949 clinical isolate assessed as ceftazidime MIC at 8 uM by checkerboard assay (reference value: 64 ug/ml)
[32] = system: Pseudomonas aeruginosa; test: Potentiation of aztreonam-induced antibacterial activity against carbapenem-resistant Pseudomonas aeruginosa 259-96918 clinical isolate expressing metallo-beta-lactamase assessed as aztreonam MIC at 8 uM by checkerboard assay (reference value: 32 ug/ml)
[33] = system: Pseudomonas aeruginosa; test: Potentiation of imipenem-induced antibacterial activity against carbapenem-resistant Pseudomonas aeruginosa 88949 clinical isolate assessed as fold reduction in imipenem MIC at 8 uM in presence of beta-lactamase inhibitor, rele-bactam

`N=C(N)NC[C@H]1O[C@H](O[C@H]2[C@H](OCCCCCCCCCCCCN3CCN(c4cc5c(cc4F)c(=O)c(C(=O)O)cn5C4CC4)CC3)[C@@H](O[C@H]3O[C@H](CO)[C@@H](O)[C@H](NC(=N)N)[C@H]3O)[C@H](NC(=N)N)C[C@@H]2NC(=N)N)[C@H](NC(=N)N)C[C@@H]1O.O=C(O)C(F)(F)F.O=C(O)C(F)(F)F.O=C(O)C(F)(F)F.O=C(O)C(F)(F)F.O=C(O)C(F)(F)F.O=C(O)C(F)(F)F` was tested, and the MIC [1] was 16 µg/mL, the MIC [2] was 0.06 µg/mL and the “fold change (FC)” value [3] was 2. For the same compound, the “fold change (FC)” value [4] was 16, the MIC [5] was 32 µg/mL and the MIC [6] was 4 µg/mL. For the same compound, the MIC [7] was 16 µg/mL, the “fold change (FC)” value [8] was 16 and the MIC [9] was 32 µg/mL. The “fold change (FC)” value [10] was 16, the MIC [11] was 512 µg/mL and the “fold change (FC)” value [12] was 16. It also gave an MIC [13] of 0.5 µg/mL, an MIC [14] of 8 µg/mL and an MIC [15] of 4 µg/mL. The MIC [16] was 32 µg/mL, the “fold change (FC)” value [17] was 16 and the MIC [18] was 0.25 µg/mL. For the same compound, the MIC [19] was 8 µg/mL, the MIC [20] was 16 µg/mL and the “fold change (FC)” value [21] was 16. The “fold change (FC)” value [22] was 2, the MIC [23] was 8 µg/mL and the MIC [24] was 32 µg/mL. For the same compound, the “fold change (FC)” value [25] was 16, the MIC [26] was 1 µg/mL and the MIC [27] was 2 µg/mL. For the same compound, the “fold change (FC)” value [28] was 16, the MIC [29] was 2 µg/mL and the MIC [30] was 64 µg/mL. The MIC [31] was 32 µg/mL, the MIC [32] was 32 µg/mL and the “fold change (FC)” value [33] was 16.
For `NC[C@H]1O[C@H](O[C@H]2[C@H](OCCCCc3cn(CCCCO[C@@H]4[C@@H](O)[C@H](N)C[C@H](N)[C@H]4O[C@H]4O[C@H](CN)[C@@H](O)C[C@H]4N)nn3)[C@@H](O)[C@H](N)C[C@@H]2N)[C@H](N)C[C@@H]1O.O=C(O)C(F)(F)F.O=C(O)C(F)(F)F.O=C(O)C(F)(F)F.O=C(O)C(F)(F)F.O=C(O)C(F)(F)F.O=C(O)C(F)(F)F.O=C(O)C(F)(F)F.O=C(O)C(F)(F)F`, the MIC [1] was 16 µg/mL, the MIC [2] was 0.25 µg/mL and the “fold change (FC)” value [3] was 2. For the same compound, the “fold change (FC)” value [4] was 16, the MIC [5] was over 128 µg/mL and the MIC [6] was 8 µg/mL. The MIC [7] was over 128 µg/mL, the “fold change (FC)” value [8] was 16 and the MIC [9] was 32 µg/mL. For the same compound, the “fold change (FC)” value [10] was 16, the MIC [11] was 128 µg/mL and the “fold change (FC)” value [12] was 16. It also gave an MIC [13] of 1 µg/mL, an MIC [14] of 16 µg/mL and an MIC [15] of 8 µg/mL. The MIC [16] was 16 µg/mL, the “fold change (FC)” value [17] was 16 and the MIC [18] was 0.5 µg/mL. For the same compound, the MIC [19] was 8 µg/mL, the MIC [20] was 16 µg/mL and the “fold change (FC)” value [21] was 16. For the same compound, the “fold change (FC)” value [22] was 2, the MIC [23] was 16 µg/mL and the MIC [24] was 32 µg/mL. For the same compound, the “fold change (FC)” value [25] was 16, the MIC [26] was 2 µg/mL and the MIC [27] was 16 µg/mL. For the same compound, the “fold change (FC)” value [28] was 16, the MIC [29] was 1 µg/mL and the MIC [30] was 32 µg/mL. For the same compound, the MIC [31] was 64 µg/mL, the MIC [32] was 8 µg/mL and the “fold change (FC)” value [33] was 16.
